From PubChem BioAssay (NCI)
Values joined by “and” are separate entries in the source; they are usually repeats but may differ in a detail not shown here. Equal values may be shown once.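 Values below derive from 48-hour exposures of cells grown in 96-well plates, with endpoints linearly interpolated between the two concentrations bracketing the appropriate inhibition level. Abbreviation: GI50, concentration required for 50% inhibition of growth. At the TGI there is no net growth.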

Tests used:
Experiment in all cases: growth of human tumour cells (NCI), 48 h
[1] = tested on: A549 NSCLC
[2] = tested on: COLO 205 colon
[3] = tested on: DU-145 prostate
[4] = tested on: HOP-62 NSCLC
[5] = tested on: LOX IMVI melanoma
[6] = tested on: NCI-H23 lung
[7] = tested on: OVCAR-8 ovarian
[8] = tested on: SK-MEL-5 melanoma
[9] = tested on: SW-620 colon
[10] = tested on: T-47D breast

SMILES	GI50 [1]	TGI [1]	GI50 [2]	TGI [2]	GI50 [3]	TGI [3]	GI50 [4]	TGI [4]	GI50 [5]	TGI [5]	GI50 [6]	TGI [6]	GI50 [7]	TGI [7]	TGI [8]	GI50 [9]	TGI [9]	GI50 [10] [µM]	TGI [10] [µM]	GI50 [8]
COC1CC2CCC(C)C(O)(O2)C(=O)C(=O)N2CCCCC2C(=O)OC(C(C)CC2CCC(O)C(OC)C2)CC(=O)C(C)C=C(C)C(O)C(OC)C(=O)C(C)CC(C)/C=C/C=C/C=C1C (stereo not given)	0.0784 µM	41.6 µM	5.64 µM	12.9 µM	3.52 µM	10.9 µM	0.159 µM	9.96 µM	0.015 µM	13.1 µM	0.0688 µM	15.5 µM	< 0.005 µM	24.6 µM	9.24 µM	5.39 µM	14 µM	< 0.005	20.9	–
COC(=O)C1=C(C(=O)ON)C2C=CC1(C(Cc1ccccc1)Nc1ccccc1)O2 (stereo not given)	15.2 µM	29.4 µM	1.78 µM	3.33 µM	2.01 µM	4.18 µM	14.4 µM	27.9 µM	1.74 µM	3.24 µM	12 µM	28.1 µM	2.75 µM	8.71 µM	27.2 µM	–	–	1.46	3.25	14.1 µM
COc1cc(C)c(Cl)cc1C1=NN(c2ccc(S(N)(=O)=O)cc2)C(/C=C/c2ccccc2)C1 (stereo not given)	3.31 µM	19.3 µM	1.76 µM	3.33 µM	3.91 µM	16.7 µM	3.1 µM	11.8 µM	1.67 µM	3.21 µM	2.02 µM	7.73 µM	3.33 µM	19.1 µM	3 µM	4.09 µM	20.7 µM	3.34	16	1.61 µM
COc1ncc(-c2ccc3nccc(-c4ccnnc4)c3c2)cc1NS(=O)(=O)c1ccc(F)cc1F	0.00882 µM and < 0.01 µM	1.49 µM and 1.32 µM	0.00561 µM and < 0.01 µM	0.542 µM and 0.257 µM	0.0119 µM and 0.0164 µM	> 10 µM and 13 µM	0.00803 µM and < 0.0122 µM	1.93 µM and 3.02 µM	0.00758 µM and < 0.0106 µM	1.12 µM and 1.26 µM	0.029 µM and 0.0174 µM	> 8.67 µM and 6.46 µM	0.0191 µM and 0.0173 µM	> 5.42 µM and 3.25 µM	0.141 µM and 0.0966 µM	0.0151 µM and 0.0225 µM	> 4.47 µM and 1.92 µM	–	0.00428	0.0237 µM and 0.0154 µM
CC(C)(C)c1nn(-c2ccccc2)c2c1C(=O)CSC(c1ccccc1Cl)N2 (stereo not given)	1.67 µM	14 µM	2.51 µM	6.01 µM	2.86 µM	10.7 µM	4.47 µM	21.8 µM	2.74 µM	15.7 µM	2.39 µM	17.9 µM	6.65 µM	30.2 µM	11 µM	–	–	6.1	30	0.966 µM
O=NNc1ccc(S(=O)(=O)c2ccccc2)cn1	–	> 100 µM	–	> 100 µM	–	> 100 µM	–	> 100 µM	–	–	–	> 100 µM	–	> 100 µM	–	–	> 100 µM	–	> 100	–
O=C1c2cc3c(cc2-c2c1c1ccc(Cl)cc1c(=O)n2CCCNCCO)OCO3	0.115 µM	2.38 µM	1.09 µM	2.6 µM	0.059 µM	1.68 µM	0.0714 µM	1.73 µM	0.0467 µM	1.3 µM	0.0553 µM	1.43 µM	0.476 µM	2.59 µM	1.58 µM	0.0506 µM	0.366 µM	–	–	0.387 µM
CCC/C(=N/N=C(N)N)c1ccc(NC(=O)c2cc3cc(OC)ccc3[nH]2)cc1	13.1 µM	38.1 µM	9.77 µM	30 µM	3.57 µM	12 µM	10.1 µM	30.2 µM	–	–	16 µM	36.2 µM	12.7 µM	39.1 µM	27 µM	3.6 µM	20.1 µM	7.06	32.9	10.1 µM
CCc1c(C#N)c(S[C@@H](C(N)=O)c2ccccc2)nc(N(C)C)c1C#N	–	–	> 100 µM	> 100 µM	> 100 µM	> 100 µM	3.63 µM	17.7 µM	> 100 µM	> 100 µM	21.1 µM	> 100 µM	3.96 µM	> 100 µM	–	> 100 µM	> 100 µM	> 100	> 100	–
Cc1ccc(/C=C2/SC(Nc3nc(-c4csc(NC5=NC(=O)/C(=C\c6ccc(C)cc6)S5)n4)cs3)=NC2=O)cc1	7 µM	47.6 µM	20.2 µM	> 50 µM	9.28 µM	> 50 µM	1.94 µM	15.5 µM	–	–	12 µM	> 50 µM	6.05 µM	26.6 µM	1.4 µM	–	–	35.3	> 50	0.0217 µM
COc1ccc(/C=C\c2cc(OC)c(OC)c(OC)c2)cc1OC(=O)c1cccc(Cn2cc(CCOC(=O)[C@H](N)Cc3cn(C)c4ccccc34)nn2)c1	0.0322 µM	> 100 µM	0.35 µM	1.55 µM	< 0.01 µM	> 100 µM	< 0.01 µM	> 100 µM	< 0.01 µM	14.2 µM	< 0.01 µM	63.7 µM	< 0.01 µM	> 100 µM	0.0254 µM	< 0.01 µM	> 100 µM	–	–	< 0.01 µM
O=C1C(Cl)=C(Nc2cccc(Cl)c2)C(=O)N1Cc1ccccc1Cl	10.2 µM	26.5 µM	–	–	18.2 µM	38.1 µM	15.8 µM	37.9 µM	1.64 µM	3.76 µM	–	–	1.82 µM	17.1 µM	14.3 µM	2.82 µM	18.6 µM	–	–	3.37 µM
CCOc1ccccc1NC(=O)CC1SC(=Nc2ccc([N+](=O)[O-])cc2)NC1=O (stereo not given)	–	38.9 µM	–	35.1 µM	–	–	–	34.3 µM	–	47.1 µM	–	35.2 µM	–	51.4 µM	30 µM	–	52.7 µM	–	–	–
N/C(=C\c1ccc(OCc2ccccc2)c(OCc2ccccc2)c1[N+](=O)[O-])C(=O)O	–	> 100 µM	–	> 100 µM	–	–	–	> 100 µM	–	> 100 µM	–	> 100 µM	–	> 100 µM	> 100 µM	–	> 100 µM	–	–	–
COC(=O)/C([Se]c1c(C)cc(C)cc1C)=C(\[Se]c1c(C)cc(C)cc1C)C(=O)OC	–	> 100 µM	–	> 100 µM	–	–	–	> 100 µM	–	> 100 µM	–	> 100 µM	–	> 100 µM	> 100 µM	–	> 100 µM	–	–	–
Fc1ccc2c(c1)c(-c1nc(-c3c[nH]c4ncccc34)cs1)cn2CCCN1CCCCC1	1.91 µM	3.62 µM	1.73 µM	3.48 µM	1.74 µM	3.26 µM	–	–	–	–	1.64 µM	3.13 µM	–	–	3.17 µM	1.92 µM	3.75 µM	–	–	1.76 µM
c1ccc2[nH]c(-c3ccc(NN=Nc4ccncc4)cc3)nc2c1	> 100 µM	> 100 µM	27 µM	> 100 µM	47 µM	> 100 µM	> 100 µM	> 100 µM	6.59 µM	38.4 µM	–	–	5.57 µM	> 100 µM	> 100 µM	49.7 µM	> 100 µM	93	> 100	24.1 µM
O=C1C(=O)c2ccccc2C(O)=C1CC=C(Br)Br	2.82 µM	62.2 µM	10.3 µM	24.5 µM	9.36 µM	> 100 µM	9.01 µM	> 100 µM	1.34 µM	27.6 µM	–	–	2.14 µM	66.8 µM	16.6 µM	3.07 µM	> 100 µM	15.4	81.2	1.28 µM
N#C/C(=C/c1ccc[nH]1)P(=O)(O)O	–	> 100 µM	–	> 100 µM	–	–	–	> 100 µM	–	> 100 µM	–	> 100 µM	–	> 100 µM	> 100 µM	–	> 100 µM	–	–	–
CCCCCCCCCCCCCC(=O)CC(=O)c1c(O)cccc1O	–	> 100 µM	–	55.1 µM	–	–	–	> 100 µM	–	36.3 µM	–	84.2 µM	–	> 100 µM	> 100 µM	–	50.2 µM	–	–	–
C/C(=N\Nc1cc(C)c2cc(C)ccc2n1)c1ccccn1	< 0.049 µM	1.14 µM	< 0.0201 µM	1.17 µM	0.0737 µM	4.8 µM	0.055 µM	1.41 µM	0.0744 µM	1.23 µM	0.139 µM	10.2 µM	–	–	1.27 µM	–	1.98 µM	< 0.0464	1.46	0.0827 µM
Oc1cc(O)c2c(-c3c(O)c(-c4ccc(O)c(O)c4)[o+]c4cc(O)cc(O)c34)c(O)c(-c3ccc(O)c(O)c3)[o+]c2c1	–	> 100 µM	–	> 100 µM	–	–	–	97.8 µM	–	> 100 µM	–	> 100 µM	–	> 100 µM	> 100 µM	–	> 100 µM	–	–	–
